Source: patent US11345666B2, “Phenyl and pyridinyl substituted imidazoles as modulators of RORγT” (Janssen Pharmaceutica NV, priority 2018, dated 2022)
Like-named read-outs stand apart in the source and are kept apart here.

Columns and labels:
full-length human RORγt = full-length human RORγt (Homo sapiens (Human), UniProt P51449); assay: RORγt (full-length human) reporter assay, conditions A or B; type: cell-based; settings: for IC50: HEK293T cells, read-out: RORγt (FL) Reporter Assay A or B, IC50; for inhibition at 6 µM: read-out: RORγt (FL) Reporter Assay A or B, % inhibition @ 6 μM, 6 μM compound concentration; for inhibition at 3 µM: 3 μM compound concentration (*)
Excerpt: RORγt (Full-Length Human) Reporter Assay:
Cells used in this assay were transiently co-transfected with three different plasmids, one expressing the GAL4-DNA binding domain (DBD)-RORγt fusion protein under control of a CMV promoter (NH2-Gal4-DBD:RORC—COOH in pCMV-BD, Stratagene #211342), and two reporter plasmids—the firefly luciferase reporter under control of a GAL4 promoter (pFR-Luc 2×GAL4) and Renilla luciferase reporter under control of CMV promoter (pRL-CMV, Promega #E2261). […] HEK293T cells were plated at 35,000 per well in 96-well plate in medium of DMEM with 10% FBS. After 18-22 hours incubation, the transfection was carried out by using a PEI solution with 170.5 ng total DNA/well (50 ng pCMV-BD-ROR plus 20 ng of pFR-Luc reporter and 0.5 ng of pRL-CMV reporter plus 100 ng Carrier DNA (Clontech #630440) for each well). 4-6 hours after transfection, cells were treated with compounds for overnight in the medium with final concentration of FBS 1.3% and DMSO 0.1%. After overnight (16 to 20 hours) incubation, media were removed and cells were lysed with […] Glo Lysis Buffer (Promega) for 10-15 minutes followed by 10 minute incubation with 50 μL Dual Glo reagent (Promega) at room temperature. Firefly luciferase luminescence was measured using a BMG Pherastar plate reader. To each well, 50 μL Stop and Glo reagent was added and incubated for 10 minutes at room temperature. Renilla luminescence was measured using a BMG Pherastar plate reader. To calculate the effect of compounds on RORγt activity, firefly values were normalized against values of DMSO only and values of reference compound at saturating concentration, then further normalized against Renilla signals. IC50s were generated by plotting final Renilla normalized data against compound concentration and percent inhibition was calculated against DMSO control.
Cells used in this assay were transiently co-transfected with three different plasmids, one expressing the GAL4-DNA binding domain (DBD)-RORγt fusion protein under control of a CMV promoter (NH2-Gal4-DBD:RORC—COOH in pCMV-BD, Stratagene #211342), and two reporter plasmids—the firefly luciferase reporter under control of a GAL4 promoter (pFR-Luc 2×GAL4) and Renilla luciferase reporter under control of CMV promoter (pRL-CMV, Promega #E2261). […] HEK293T cells were plated at 8750 cells per well in 384-well plate in medium of DMEM with 10% FBS. After 18-22 hours incubation, the transfection was carried out by using a PEI solution with 42.6 ng total DNA/well (12.5 ng pCMV-BD-ROR plus 5 ng of pFR-Luc reporter and 0.125 ng of pRL-CMV reporter plus 25 ng Carrier DNA (Clontech #630440) for each well). 4-6 hours after transfection, cells were treated with compounds for overnight in the medium with final concentration of FBS 1.3% and DMSO 0.1%. After overnight (16 to 20 hours) incubation, media were removed and cells were lysed with 20 μL Glo Lysis Buffer (Promega) for 10-15 minutes followed by 10 minute incubation with 20 μL Dual Glo reagent (Promega) at room temperature. Firefly luciferase luminescence was measured using a BMG Pherastar plate reader. To each well, 20 μL Stop and Glo reagent was added and incubated for 10 minutes at room temperature. Renilla luminescence was measured using a BMG Pherastar plate reader. To calculate the effect of compounds on RORγt activity, firefly values were normalized against values of DMSO only and values of reference compound at saturating concentration, then further normalized against Renilla signals. IC50s were generated by plotting final Renilla normalized data against compound concentration and percent inhibition was calculated against DMSO control.

[1] = biological target: human RORγt ligand binding domain (RORγt LBD) (Homo sapiens (Human), UniProt P51449); assay: RORγt ThermoFluor assay
Excerpt: ThermoFluor® is a fluorescence based assay that estimates ligand binding affinities by measuring the effect of a ligand on protein thermal stability (Pantoliano, M. W., Petrella, E. C., Kwasnoski, J. D., Lobanov, V. S., Myslik, J., Graf, E., Carver, T., Asel, E., Springer, B. A., Lane, P., and Salemme, F. R. (2001) High-density miniaturized thermal shift assays as a general strategy for drug discovery. J Biomol Screen 6, 429-40, and Matulis, D., Kranz, J. K., Salemme, F. R., and Todd, M. J. (2005) Thermodynamic stability of carbonic anhydrase: measurements of binding affinity and stoichiometry using ThermoFluor. Biochemistry 44, 5258-66). This approach is applicable to a wide variety of systems, and rigorous in theoretical interpretation through quantitation of equilibrium binding constants (KD).
The shift in the melting point described as a ΔTm is proportional to the concentration and affinity of the ligand.
RORγt ThermoFluor® Assay Construct
Nucleotides 850-1635 (SEQ ID NO:2) coding for the wild type human RORγt ligand binding domain (RORγt LBD) were cloned into the pHIS 1 vector, a modified pET E. coli expression vector (Accelagen, San Diego), containing an in-frame N-terminal His-tag and a TurboTEV protease cleavage site (ENLYFQG, SEQ ID NO:3) upstream of the cloned insert sequence. The amino acid sequence for the RORγt construct used in the Thermofluor® assay is shown as SEQ ID NO:4.
ThermoFluor® experiments were carried out using instruments owned by Janssen Research and Development, L.L.C. through its acquisition of 3-Dimensional Pharmaceuticals, Inc. 1,8-ANS (Invitrogen) was used as a fluorescent dye. Protein and compound solutions are dispensed into black 384-well polypropylene PCR microplates (Abgene) and overlayed with silicone oil (1 μL, Fluka, type DC 200) to prevent evaporation.
Bar-coded assay plates are robotically loaded onto a thermostatically controlled PCR-type thermal block and then heated at a typical ramp-rate of 1° C./min for all experiments. Fluorescence was measured by continuous illumination with UV light (Hamamatsu LC6) supplied via fiber optic and filtered through a band-pass filter (380-400 nm; >6 OD cutoff). Fluorescence emission of the entire 384-well plate was detected by measuring light intensity using a CCD camera (Sensys, Roper Scientific) filtered to detect 500±25 nm, resulting in simultaneous and independent readings of all 384 wells. Images were collected at each temperature, and the sum of the pixel intensity in a given area of the assay plate was recorded versus temperature. Reference wells contained RORγt without compounds, and the assay conditions were as follows: • 0.065 mg/mL RORγt • 60 μM 1,8-ANS • 100 mM Hepes, pH 7.0 • 10 mM NaCl • 2.5 mM GSH • 0.002% Tween-20
Project compounds were arranged in a pre-dosed mother plate (Greiner Bio-one) wherein compounds are serially diluted in 100% DMSO by 1:2 from a high concentration of 10 mM over 12 columns within a series (column 12 is a reference well containing DMSO, no compound). The compounds were robotically dispensed directly into assay plates (1×=46 nL) using a Hummingbird capillary liquid handling instrument (Digilab). Following compound dispense, protein and dye in buffer was added to achieve the final assay volume of 3 μL, followed by 1 μL of silicone oil.
The binding affinity was estimated as described previously (Matulis, D., Kranz, J. K., Salemme, F. R., and Todd, M. J. (2005) Thermodynamic stability of carbonic anhydrase: measurements of binding affinity and stoichiometry using ThermoFluor®. Biochemistry 44, 5258-66) using the following thermodynamic parameters of protein unfolding: […]

[2] = read-out: RORγt (FL) Reporter Assay A or B, % inhibition

Chain of human RORγt ligand binding domain (RORγt LBD) (P51449 other isoform, or with tags, fused parts or gaps): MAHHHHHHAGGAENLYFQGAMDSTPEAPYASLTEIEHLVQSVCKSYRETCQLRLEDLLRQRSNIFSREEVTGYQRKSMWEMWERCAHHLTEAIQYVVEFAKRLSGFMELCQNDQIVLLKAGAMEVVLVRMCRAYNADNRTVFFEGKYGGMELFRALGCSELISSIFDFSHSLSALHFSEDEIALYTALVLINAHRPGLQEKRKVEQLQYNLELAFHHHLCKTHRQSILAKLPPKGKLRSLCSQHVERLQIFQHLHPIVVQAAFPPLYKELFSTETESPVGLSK
Chain of full-length human RORγt (P51449 other isoform, or with tags, fused parts or gaps): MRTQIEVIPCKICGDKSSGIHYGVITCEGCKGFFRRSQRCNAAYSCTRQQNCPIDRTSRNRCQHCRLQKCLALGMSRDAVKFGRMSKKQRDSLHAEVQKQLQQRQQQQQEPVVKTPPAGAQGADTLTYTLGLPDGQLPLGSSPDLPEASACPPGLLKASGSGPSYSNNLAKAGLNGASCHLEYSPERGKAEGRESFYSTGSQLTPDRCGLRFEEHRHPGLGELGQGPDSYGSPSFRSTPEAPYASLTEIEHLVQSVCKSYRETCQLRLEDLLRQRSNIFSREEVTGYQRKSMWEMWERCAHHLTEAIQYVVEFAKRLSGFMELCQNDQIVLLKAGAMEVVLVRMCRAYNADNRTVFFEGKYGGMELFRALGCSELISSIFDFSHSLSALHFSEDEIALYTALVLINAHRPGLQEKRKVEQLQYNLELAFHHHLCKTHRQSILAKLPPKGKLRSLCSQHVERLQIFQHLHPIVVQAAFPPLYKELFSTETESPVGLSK

IC50 (full-length human RORγt)	inhibition at 6 µM (full-length human RORγt)	Kd [1]	inhibition at 0.67 µM (full-length human RORγt; 0.67 μM compound concentration (****), read-out: RORγt (FL) Reporter Assay A or B, % inhibition)	inhibition at 2 µM (full-length human RORγt; 2 μM compound concentration (**), read-out: RORγt (FL) Reporter Assay A or B, % inhibition)	inhibition at 3 µM (full-length human RORγt; [2])	Structure (SMILES)	inhibition at 0.67 µM (full-length human RORγt; read-out: RORγt (FL) Reporter Assay A or B, % inhibition, 0.67 μM compound concentration (****))
3.2 nM	–	0.73 nM	–	105%	–	C#Cc1c(C(=O)NC[C@]2(O)CC[C@@H](S(C)(=O)=O)CC2)nc(CC)n1-c1ccc(CC(C)(C)C(F)(F)F)cc1OC(F)F [Example 40, 1-(2-(Difluoromethoxy)-4-(3,3,3-trifluoro-2,2-dimethylpropyl)phenyl)-2-ethyl-5-ethynyl-N-(((1s,4s)-1-hydroxy-4-(methylsulfonyl)cyclohexyl)methyl)-1H-imidazole-4-carboxamide]	–
37 nM	–	9.5 nM	–	–	72%	Cc1nc(C(=O)NC[C@H]2CC[C@H](S(C)(=O)=O)CC2)c(Cl)n1-c1ncc(CC(C)(C)C(F)(F)F)cc1OC(F)F [Example 133, 5-Chloro-1-(3-(difluoromethoxy)-5-(3,3,3-trifluoro-2,2-dimethylpropyl)pyridin-2-yl)-2-methyl-N-(((1r,4r)-4-(methylsulfonyl)cyclohexyl)methyl)-1H-imidazole-4-carboxamide]	–
160 nM	–	28 nM	–	–	90%	CCc1nc(C(=O)NC[C@]2(O)CC[C@@H](S(C)(=O)=O)CC2)c(Cl)n1-c1ncc(C[C@H](C)C(F)(F)F)cc1OC(F)F (single isomer, unassigned) [Example 71, 5-Chloro-1-(3-(difluoromethoxy)-5-((S*)-3,3,3-trifluoro-2-methylpropyl)pyridin-2-yl)-2-ethyl-N-(((1s,4R)-1-hydroxy-4-(methylsulfonyl)cyclohexyl)methyl)-1H-imidazole-4-carboxamide]	–

Continued, compound first:

Structure (SMILES)	IC50 (full-length human RORγt)	inhibition at 6 µM (full-length human RORγt)	Kd [1]	inhibition at 0.67 µM (full-length human RORγt; 0.67 μM compound concentration (****), read-out: RORγt (FL) Reporter Assay A or B, % inhibition)	inhibition at 2 µM (full-length human RORγt; 2 μM compound concentration (**), read-out: RORγt (FL) Reporter Assay A or B, % inhibition)	inhibition at 3 µM (full-length human RORγt; [2])	inhibition at 0.67 µM (full-length human RORγt; read-out: RORγt (FL) Reporter Assay A or B, % inhibition, 0.67 μM compound concentration (****))
CCc1nc(C(=O)NC[C@]2(C#N)CC[C@@H](S(C)(=O)=O)CC2)c(C)n1-c1ncc(CC(C)(C)C(F)(F)F)cc1OC [Example 128, N-(((1s*,4s*)-1-Cyano-4-(methylsulfonyl)cyclohexyl)methyl)-2-ethyl-1-(3-methoxy-5-(3,3,3-trifluoro-2,2-dimethylpropyl)pyridin-2-yl)-5-methyl-1H-imidazole-4-carboxamide]	310 nM	105%	37 nM	–	–	–	–
CCc1nc(C(=O)NC[C@H]2CC[C@H](S(C)(=O)=O)CC2)c(Cl)n1-c1ccc(CCCC(F)(F)F)cc1F [Example 97, 5-Chloro-2-ethyl-1-(2-fluoro-4-(4,4,4-trifluorobutyl)phenyl)-N-(((1r,4r)-4-(methylsulfonyl)cyclohexyl)methyl)-1H-imidazole-4-carboxamide]	22 nM	–	14 nM	53%	–	–	–
CCc1nc(C(=O)NC[C@H]2CC[C@H](S(C)(=O)=O)CC2)c(Cl)n1-c1c(F)cc(C[C@H](C)C(F)(F)F)cc1F (single isomer, unassigned) [Example 86, 5-Chloro-1-(2,6-difluoro-4-((S*)-3,3,3-trifluoro-2-methylpropyl)phenyl)-2-ethyl-N-(((1r,4S)-4-(methylsulfonyl)cyclohexyl)methyl)-1H-imidazole-4-carboxamide]	23 nM	–	5.3 nM	–	–	–	68%
CCc1nc(C(=O)NC[C@H]2CC[C@H](S(C)(=O)=O)CC2)c(F)n1-c1ccc(CC(C)C(F)(F)F)cc1OC (stereo partly drawn) [Example 15, 2-Ethyl-5-fluoro-1-(2-methoxy-4-(3,3,3-trifluoro-2-methylpropyl)phenyl)-N-(((1r,4r)-4-(methylsulfonyl)cyclohexyl)methyl)-1H-imidazole-4-carboxamide]	55 nM	103%	3.9 nM	–	–	–	–
CCc1nc(C(=O)NC[C@@]2(O)CC[C@H](S(C)(=O)=O)C[C@@H]2O)c(Cl)n1-c1ncc(CC(C(F)(F)F)C(F)(F)F)cc1OC(F)F (stereo in doubt) [Example 66, 5-Chloro-1-(3-(difluoromethoxy)-5-(3,3,3-trifluoro-2-(trifluoromethyl)propyl)pyridin-2-yl)-N-(((1S*,2S*,4S*)-1,2-dihydroxy-4-(methylsulfonyl)cyclohexyl)methyl)-2-ethyl-1H-imidazole-4-carboxamide]	790 nM	–	73 nM	–	–	70%	–
